In patent publication US20010055614A1, “Antidepressant therapy” (priority 1998, published 2001):
Where a name gives a salt, the structure may show the parent alone.

Experiments:
[1] = Solubility and dissolution rate of amitriptyline hydrochloride in artificial gastric and intestinal fluid; type: physicochemical
Procedure: Dosage form 10 controls the exit 13 surface area for releasing drug 16 essentially independent of the pH of the drug receiving biological receptor, thereby essentially preventing crystallizing drug 16 in exit 13, or essentially preventing blocking exit 13 with nonreleased drug 16. […] In artificial intestinal fluid at 37° C. the drug dissolution rate in artificial intestinal fluid at pH 7.5 is low compared to the dissolution rate in a lower pH such as gastric fluid having a pH of about 2. […] The dissolution rate is sensitive to pH changes, and when drug 16 is pumped from the dosage form it tends to crystallize at higher pH in orifice exit 13, or to partially block orifice exit 13, which in either instance, slows the drug release rate, and decreases the cumulative amount of drug released from the dosage form. The present invention by providing coated granules of antidepressant tricyclic drug 16, and by providing an orifice in the range of 1 mil to 30 mil (0.0254 mm to 0.760 mm), essentially overcomes the problems discussed above. […] In drawing FIG. 6, the release rate is given on the y-axis and the orifice surface area in mils and in mm^2 is given on the x-axis. The release of drug from the dosage form was measured in artificial intestinal fluid. […] Drawing FIG. 9 depicts the cumulative amount of drug release in mg, over a period of 24 hours for a coated drug through a 10 mil (0.254 mm) exit orifice illustrates about 100% of the drug is delivered free of crystalizing in the orifice. Drawing FIG. 10 depicts the release rate measured in artificial gastric fluid over zero to two hours and then in artificial intestinal fluid over two to twenty-four hours, through a 10 mil (0.254 mm) orifice illustrates about 90% of the drug is delivered under these conditions. […] The antidepressant drug is dose delivered independent of pH as found in the gastrointestinal drug and free from sticking or blocked delivery to a patient.

[2] = pKa of amitriptyline hydrochloride; type: physicochemical

## CN(C)CCC=C1c2ccccc2CCc2ccccc21 [amitriptyline hydrochloride]
[1]; 7.5 pH, artificial intestinal fluid, compared to artificial gastric fluid at pH 6
  solubility (in words): soluble, but the solubility is less
[1]; artificial gastric fluid, pH 6, simulated gastric fluid
  solubility: > 600 mg/mL
[1]; artificial intestinal fluid at pH 7.5, 37° C., compared to gastric fluid pH about 2
  dissolution rate (in words): low
[2]
  pKa: 9.4
